Results: the supplement of paper PMC10307832

What was measured:
Test in all cases: relative viability (nuclei count vs DMSO), 5 days (fraction); higher = more cells survive
[1] = compound: CN(C)CC1=CC(=CC=C1)N=C(C2=CC=CC=C2)C3=C(NC4=C3C=CC(=C4)C(=O)N(C)C)O
Procedure, shortened: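 Five library-drug doses, separated by factors of √10, were pinned into 1536-well plates holding lung cancer cell lines after an overnight stay at 37 °C. Cells were fixed, permeabilised and Hoechst-stained in one step after 5 days without medium change, then imaged at 4×. Viability compares treated-well with vehicle-well nuclei, counted in MetaXpress, as a median across plates. Passing plates had control CV below 25% and at least one doubling.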

[2] = compound: CN(C)CC1=CC(=CC=C1)N=C(C2=CC=CC=C2)C3=C(NC4=C3C=CC(=C4)C(=O)N(C)C)O + CC(=O)Nc1cccc(-n2c(=O)n(C3CC3)c(=O)c3c(Nc4ccc(I)cc4F)n(C)c(=O)c(C)c32)c1 [Trametinib] (partner 0.02 µM)
Procedure, shortened: (§1)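 After 5 days of treatment, lung cancer cells in 1536-well plates were fixed and stained in a single step (final 0.05% Triton X-100, 1% formaldehyde, 1 ug/ml Hoechst) and their nuclei counted on 4× images. Treatment had been applied by pin tool the day after seeding as one drug alone or as a fixed anchor-drug dose with five library-drug doses (not always all listed) in √10 steps. Relative viability is the nuclei count of treated wells divided by that of vehicle wells, and values are medians of duplicate plates.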

[3] = compound: CN(C)CC1=CC(=CC=C1)N=C(C2=CC=CC=C2)C3=C(NC4=C3C=CC(=C4)C(=O)N(C)C)O + Cc1cc(Nc2cc(N3CCN(C)CC3)nc(Sc3ccc(NC(=O)C4CC4)cc3)n2)n[nH]1 [Tozasertib] (partner 0.1 µM)
Procedure, shortened: as §1

[4] = compound: CN(C)CC1=CC(=CC=C1)N=C(C2=CC=CC=C2)C3=C(NC4=C3C=CC(=C4)C(=O)N(C)C)O + NC(=O)Nc1cc(-c2cccc(F)c2)sc1C(=O)N[C@H]1CCCNC1 [AZD7762] (partner 0.2 µM)
Procedure, shortened: as §1

| Cell Line | relative viability ([1]; 0.08 µM) | relative viability ([1]; 0.253 µM) | relative viability ([1]; 0.8 µM) | relative viability ([1]; 2.53 µM) | relative viability ([1]; 8 µM) | relative viability ([2]; first compound 0.08 µM) | relative viability ([2]; first compound 0.253 µM) | relative viability ([2]; first compound 0.8 µM) | relative viability ([2]; first compound 2.53 µM) | relative viability ([2]; first compound 8 µM) | relative viability ([3]; first compound 0.08 µM) | relative viability ([3]; first compound 0.253 µM) | relative viability ([3]; first compound 2.53 µM) | relative viability ([3]; first compound 8 µM) | relative viability ([4]; first compound 0.08 µM) | relative viability ([4]; first compound 0.253 µM) | relative viability ([4]; first compound 0.8 µM) | relative viability ([4]; first compound 2.53 µM) | relative viability ([4]; first compound 8 µM) | relative viability ([3]; first compound 0.8 µM) |
| --- | --- | --- | --- | --- | --- | --- | --- | --- | --- | --- | --- | --- | --- | --- | --- | --- | --- | --- | --- | --- |
| NCI-H1793 | 1.01 | 1.07 | 0.773 | 1.05 | 0.839 | 0.426 | 0.418 | 0.433 | 0.381 | 0.445 | 0.305 | 0.385 | 0.368 | 0.347 | 0.527 | 0.386 | 0.407 | 0.346 | 0.436 | – |
| EMC-BAC-2 | 1.02 | 1.06 | 1.03 | 0.939 | 1.08 | 0.942 | 0.965 | 0.886 | 0.881 | 0.969 | 0.297 | 0.283 | 0.258 | 0.267 | 1.23 | 1.15 | 1.27 | 1.06 | 1.16 | 0.383 |
| NCI-H2405 | 1.02 | 1.01 | 1.01 | 0.902 | 0.979 | 0.642 | 0.634 | 0.593 | 0.605 | 0.535 | 0.748 | 0.74 | 0.662 | 0.645 | 0.715 | 0.72 | 0.713 | 0.659 | 0.681 | 0.748 |
| EPLC-272H | 0.837 | 1 | 0.838 | 1.15 | 0.792 | 0.335 | 0.318 | 0.289 | 0.304 | 0.266 | 0.351 | 0.392 | 0.278 | 0.272 | 0.229 | 0.252 | 0.203 | 0.302 | 0.214 | 0.303 |
| LXF-289 | 1.01 | 0.955 | 0.993 | 0.971 | 0.955 | 0.669 | 0.628 | 0.643 | 0.573 | 0.655 | 0.174 | 0.19 | 0.159 | 0.197 | 1.12 | 1.05 | 1.11 | 0.894 | 1.08 | 0.137 |
| NCI-H1395 | 0.87 | 0.976 | 1.04 | 0.774 | 0.875 | 0.983 | 0.96 | 1.16 | 1 | 0.892 | 0.85 | 0.831 | 0.746 | 0.771 | 0.406 | 0.343 | 0.446 | 0.39 | 0.42 | 0.789 |
| NCI-H596 | 1.05 | 0.973 | 0.975 | 1.01 | 0.882 | 0.809 | 0.873 | 0.921 | 0.821 | 0.723 | 0.898 | 0.851 | 0.847 | 0.906 | 1.22 | 1.29 | 0.979 | 1.06 | 0.987 | 0.826 |
| 201T | 0.983 | 1.02 | 0.997 | 0.947 | 0.901 | 0.71 | 0.693 | 0.73 | 0.716 | 0.657 | 0.937 | 0.97 | 0.904 | 0.809 | 0.675 | 0.6 | 0.627 | 0.607 | 0.525 | 0.857 |
| NCI-H1944 | 0.956 | 1.03 | 0.892 | 0.903 | 0.823 | 0.44 | 0.4 | 0.337 | 0.464 | 0.373 | 0.25 | 0.251 | 0.262 | 0.214 | 0.56 | 0.576 | 0.419 | 0.525 | 0.434 | 0.222 |
| NCI-H322M | 0.823 | 0.996 | 0.794 | 0.75 | 0.651 | 0.49 | 0.497 | 0.477 | 0.487 | 0.468 | 0.432 | 0.42 | 0.449 | 0.317 | 0.53 | 0.599 | 0.53 | 0.448 | 0.588 | 0.407 |
| NCI-H1755 | 0.981 | 0.967 | 0.971 | 0.983 | 0.987 | 0.844 | 0.709 | 0.708 | 0.779 | 0.736 | 0.531 | 0.479 | 0.594 | 0.615 | 0.374 | 0.383 | 0.481 | 0.452 | 0.411 | 0.642 |
| NCI-H1915 | 1.01 | 0.986 | 1.07 | 1.01 | 0.992 | 0.298 | 0.278 | 0.32 | 0.289 | 0.265 | 0.474 | 0.409 | 0.407 | 0.414 | 0.704 | 0.729 | 0.756 | 0.699 | 0.578 | 0.432 |
| NCI-H2347 | 0.996 | 1.08 | 0.971 | 1 | 1.09 | 0.301 | 0.26 | 0.278 | 0.252 | 0.33 | 0.615 | 0.522 | 0.56 | 0.603 | 0.898 | 0.647 | 0.7 | 0.719 | 0.734 | 0.522 |
| PC-14 | 1.12 | 0.951 | 1.08 | 0.988 | 1.02 | 0.932 | 0.904 | 0.968 | 0.8 | 0.76 | 0.564 | 0.604 | 0.531 | 0.649 | 0.392 | 0.395 | 0.377 | 0.387 | 0.411 | 0.618 |
| NCI-H727 | 0.921 | 0.962 | 0.891 | 1.02 | 0.821 | – | 0.368 | 0.428 | 0.391 | 0.426 | 0.361 | 0.721 | 0.647 | 0.486 | – | 0.546 | 0.577 | 0.867 | 0.583 | 0.608 |
| NCI-H647 | 0.997 | 0.864 | 0.888 | 0.909 | 0.78 | 0.463 | 0.492 | 0.434 | 0.388 | 0.299 | 0.262 | 0.362 | 0.356 | 0.235 | 0.513 | 0.483 | 0.463 | 0.48 | 0.445 | 0.263 |
| EKVX | 0.981 | 0.919 | 0.819 | 1.05 | 0.996 | 0.32 | 0.389 | – | 0.432 | 0.438 | 0.445 | 0.387 | 0.378 | 0.323 | 0.745 | 0.727 | – | 0.726 | 0.696 | 0.459 |
| NCI-H838 | 1 | 0.976 | 0.977 | 0.902 | 0.785 | 0.528 | 0.51 | 0.494 | 0.473 | 0.431 | 0.276 | 0.27 | 0.264 | 0.268 | 0.951 | 0.928 | 0.948 | 0.831 | 0.903 | 0.274 |
| NCI-H1437 | 1.05 | 0.977 | 1.04 | 1.02 | 1.05 | 0.574 | 0.53 | 0.475 | 0.572 | 0.656 | 0.431 | 0.443 | 0.387 | 0.4 | 1.19 | 1.16 | 1.16 | 1.03 | 1.12 | 0.37 |
| ChaGo-K-1 | 0.948 | 0.993 | 1.02 | 0.947 | 1.01 | 0.857 | 0.89 | 0.882 | 0.835 | 0.808 | 0.235 | 0.25 | 0.22 | 0.213 | 0.832 | 0.824 | 0.902 | 0.822 | 0.896 | 0.217 |
| LK-2 | 1.13 | 1.04 | 0.909 | 0.991 | 0.853 | 0.776 | 0.861 | 0.674 | 0.835 | 0.655 | 0.162 | 0.165 | 0.188 | 0.198 | 0.457 | 0.416 | 0.426 | 0.493 | 0.341 | 0.171 |
| PC-3 [JPC-3] | 1.04 | 1.05 | 0.866 | 1.06 | 1.09 | 0.709 | 0.681 | 0.653 | 0.678 | 0.702 | 0.877 | 0.855 | 0.814 | 0.922 | 0.872 | 0.938 | 0.753 | 0.806 | 1.02 | 0.854 |
| NCI-H2170 | 0.952 | 0.981 | 0.812 | 1.02 | 0.915 | 0.899 | 0.892 | 0.758 | 0.917 | 0.809 | 0.749 | 0.8 | 0.679 | 0.609 | 0.921 | 0.88 | 0.589 | 0.867 | 0.682 | 0.586 |
| NCI-H1648 | 0.851 | 0.657 | 0.749 | 0.884 | 0.915 | 0.482 | 0.368 | – | 0.534 | 0.554 | 0.419 | – | 0.383 | 0.396 | 0.638 | 0.706 | – | 0.718 | 0.606 | 0.572 |
| LOU-NH91 | 0.954 | 1.03 | 0.789 | 0.96 | 0.913 | 0.76 | 0.807 | 0.759 | 0.818 | 0.788 | 0.68 | 0.673 | 0.642 | 0.629 | 0.762 | 0.801 | 0.713 | 0.719 | 0.703 | 0.54 |
| BEN | 0.904 | 0.944 | 0.988 | 1 | 0.909 | 1.01 | 0.799 | 1.2 | 1.01 | 0.941 | 0.619 | 0.493 | 0.426 | 0.538 | 0.701 | 0.71 | 0.695 | 0.728 | 0.745 | 0.5 |
| LCLC-97TM1 | 0.907 | 1.04 | 1.02 | 1.13 | 1.13 | 0.231 | 0.222 | 0.2 | 0.191 | 0.176 | 0.219 | 0.256 | 0.283 | 0.255 | 0.312 | 0.328 | 0.241 | 0.281 | 0.281 | 0.224 |
